What was measured:
carotid artery wall = experiment: Superoxide in carotid artery wall by dihydroethidine fluorescence (laser confocal microscopy) after flow reversal; format: in vivo; settings: apocynin 1 mM in drinking water concurrently with carotid flow reversal; vs flow reversal without apocynin
Method: The carotid arteries of animals were removed and examined by laser confocal microscopy excitation (514 nm; emission, 605 nm; Objective, 40x. C.3.a. Visualization of NO and O2-Using Fluorescence) following perfusion under conditions of: Control (C), Flow Reversal (FR), and Apocynin+Flow Reversal (AC). The apocynin was administered in drinking water (1 mM) to an animal concurrently with carotid flow reversal. Dihydroethidine (DHE), a fluorescent dye, was used to indicate superoxide in arterial wall.

[1] = system: carotid artery with reverse flow; experiment: Superoxide measurement (L012 luminescence) in carotid arteries after in vivo reverse flow with drug treatment; design: species or system swine
From the text: To create a full reverse flow, and as part of an exemplary system 100 of the present disclosure, two tubes 102, such as two pieces of silicone tubing, were inserted into the two respective ends of the isolated vessel segment 104 as shown in FIGS. 1A and 1B. In at least one embodiment, tubes 102 are configured to fit within a portion of isolated vessel segment 104, and in at least another embodiment, tubes 102 are configured so surround the ends of vessel segment and are held in place with a connector (not shown). […]
The harvested vessels (vessel segments 104) were cut into small rings at approximately 3 mm in length in 37° C. […] The L012 (100 μM) was added last and the luminescence was recorded for 60 minutes at 1 minute intervals using a plate reader from Perkin Elmer (En vision Xcite Multilabel Reader, Perkin Elmer, Shelton, Conn.) at ultra-luminecent mode. […]
Samples were obtained from carotid arteries with forward (solid bar) or reverse (empty bar) flow (FF or RF, respectively) or reverse flow plus jasplakinolide (Jasp) treatment (lined bar). The basal level of superoxide measured under forward flow condition was taken as 100%, and all other measurements were expressed as percentage to the basal level. Each measurement was performed in triplicate and data were expressed as mean±1SD. […]

NADPH oxidase = NADPH oxidase activity assay in subcellular membrane preparations of vessels; format: in vivo, swine
Method: (§1) In some experiments (n=3), the carotid arteries were treated with jasplakinolide to stablize the actin. […] The right side vessel 114 was filled with saline and served as control. The reverse or forward flows were then ensured for 2 hrs (for superoxide measurement) or 4 hrs (for NADPH oxidase measurment by western blot) after clamps 116, 118 were released. A low concentration of jasplakinolide was used, which was sufficient to stabilize actin and to avoid possible non-specific effects at high concentration. […]
Stored samples were placed in ice cold lysis buffer containing 20 mM KH2PO4, 1 mM EGTA and protease inhibitor cocktail (Sigma-Aldrich, St. Louis, Mo.) and homogenized with an electric homogenizer (Power Gen 35, Fisher Scientific) for 20 seconds each. […] The enzyme activity was determined in 200 μl assay buffer at pH7.4 containing the following (in mM): HEPES, 25; NaCl, 120; KCl, 5.9; MgSO4, 1.2; CaCl2, 1.75; glucose, 11; β-NADPH, 0.1; and L012, 0.1. The reaction started by adding 10 μL of homogenate, and the luminescence was measured every 15 seconds for 5 minutes by Perkin Elmer plate reader at ultra-sensitive mode. The protein concentration was determined by BCA kit (Bio-Rad) and the results of enzyme activity were standardized to protein level of each sample. […]

[2] = system: actin in carotid artery endothelial cells; experiment: Actin immunostain (Alexa Fluor488-phalloidin) of carotid artery rings, in vitro actin depolymerization; format: cell-based, swine; settings: 10 μM cytochalasin D, 30 minutes, 37° C.
Method: For actin staining, vessels under different conditions were cut into 4 mm rings and immediately fixed for 2 hours in 4% methanol-free formaldehyde-PBS solution (Thermo Scientific, Rockford, Ill.). For in vitro actin depolymerization immunochemistry, 3 to 4 mm carotid artery ring from control animal were incubated with 10 μM cytochalasin D for 30 minutes. Samples were fixed for 2 hours and then processed for actin staining.
The fixed samples were permeablized by 0.1% tritonX-PBS solution. After non-specific sites were blocked by 1% BSA in PBS, actin was labled by incubating samples with Alexa Fluor488-phalloidin (Invitrogen, Carlsbad, Calif.) for 30 minutes at room temperature. After labeling, each sample was cut into a 3×3 mm piece and mounted on glass slide and covered with a glass cover slip in the presence of 70% glyceral-PBS and sealed with glue. The samples were observed under a Zeiss confocal microscope (Zeiss 510 meta) and images were captured under 100× objective oil lens with excitation at 488 nm and emission at BP 500-530 nm.
All samples were viewed under confocal microscopy (Zeiss 510 meta) with 100× objective with excitation at 488 nm and Emission at BP 500-530 nm.

[3] = system: actin in carotid artery endothelial cells; settings: reported previously; cited from earlier work
[4] = system: carotid artery rings (endothelial cells); experiment: Superoxide measurement (L012 luminescence) in carotid artery rings treated in vitro; format: cell-based, swine
Method: For superoxide measurements, carotid arteries (vessel segments 104) from both sides were quickly removed and placed into a heated (37° C.) chamber filled with HEPES buffered PSS containing (in mM): D-glucose, 5.5; KCl, 4.7; NaCl, 142; HEPES sodium salt, 2.7; MgSO4, 1.17; CaCl2, 2.79; at pH 7.4. For NADPH oxidase activity assays or protein expression measurements by western blot, the left and right carotid arteries were removed and saved in a −80° C. freezer until analysis.
The harvested vessels (vessel segments 104) were cut into small rings at approximately 3 mm in length in 37° C. HEPES PSS buffer. The rings were first transferred into […] with HEPES-PSS and incubated at 37° C. for 5 minutes. Various compounds [cytochalason D, latrunculin B, jasplakinolide, and phorbol 2-myrisate 13-acetate (PMA)] were then added into each well for treatment. The L012 (100 μM) was added last and the luminescence was recorded for 60 minutes at 1 minute intervals using a plate reader from Perkin Elmer (En vision Xcite Multilabel Reader, Perkin Elmer, Shelton, Conn.) at ultra-luminecent mode. The total reaction volume was 200 μl. After each recording, the sample rings were air dried and weighed. Each condition was tested in triplicate. To remove the endothelial cells, the vessel ring was gently rubbed against the tip of a pair of forceps.
Basal superoxide production was detected in the carotid artery (vessel segment 104) samples obtained from control animals with forward blood flow as shown in FIG. 2A. Rings were incubated with or without treatments of cytochalasin D (cyt D), latrunculin (Latru) or jasplakinolide (Jasp) and the superoxide production were recorded using plate reader at ultrasensitive mode for luminescence to generate the results shown in FIG. 2A. The luminescence recorded from rings without treatment was considered at base level and taken as 100%. The luminescence recorded under other conditions was expressed as percentage of base level. The superoxide production induced by PMA was used as positive control as identified in FIG. 2B. Each condition was tested in triplicate from each animal. The significance of increased superoxide production was test using ANOVA (p=0.004 for cytochalasin D, n=10 and p=0.044 for Latrucillin, n=3), and the data are mean±1SD.

p47phox = p47phox phosphorylation (phosphoserine immunoprecipitation and western blot), in vitro; format: cell-based, swine; settings: cytochalasin D treatment in vitro; p<0.05
Method: For p47^phox phosphorylation measurements, the total protein with phosphoserine was first immunoprecipitated according to a known method. Briefly, samples were first incubated with rabbit polyclonal antibody to phosphoserine (Abcam, Cambridge, Mass.) for 2 hours at 4° C. Samples were then mixed with Protein G PLUS-Agarose (Santa Cruz Biotechnology, Santa Cruz, Calif.) and incubated overnight at 4° C. Samples were then centrifuged and washed three times with lysis buffer. The pellet was resuspended in loading buffer and denatured. The p47^phox was then measured by western blot.
P47^phox phosphorylation was examined further to understand the molecular basis for increased superoxide production subsequent to actin depolymerization and flow reversal, as shown in FIGS. 7A-7D. The phosphorylated P47^phox was standardized by total P47^phox. The level of phosphorylated P47^phox at basal level in vitro (FIG. 7A) or under forward flow (FF) condition in vivo (FIG. 7C) were taken as 100% and the level of phosphorylated P47^phox after cytochalasin D treatment or under reversed flow (RF) condition were expressed as percent thereof. […] The data are mean and SD of at least three experiments from different animals (*p<0.05).

gp91phox and p47phox = experiment: Western blot for NADPH oxidase expression; format: in vivo, swine; settings: jasplakinolide, four hours of treatment
Method: as §1
The artery segments were homogenized in the lysis buffer containing 50 mM glycerophosphate, 100 μM sodium orthovanadate, 2 mM magnesium chloride, 1 mM EGTA, 0.5% Triton X-100, 1 mM DL-dithiothreitol, 20 μM pepstatin, 20 μM leupeptin, 0.1 U/ml aprotinin, and 1 mM phenylmethylsulfonyl fluoride and then incubated on ice for 1 hour. […] The total protein was measured by a BCA kit (Bio-Rad). […]
The NADPH oxidase activity was examined using an enzyme assay in subcellular membrane prepared from vessels with different flow conditions. […] The data are expressed as ratio of enzyme activity measured in vessel from reverse flow (RF) or reverse flow with jasplakinolide (RF-Jasp) treatment vs forward flow (FF). […] The data are expressed as ratio of protein band density of reversed flow sample versus that from forward flow sample.

[5] = system: porcine femoral artery preparation; experiment: NO metabolite (nitrite) production in perfused porcine femoral artery preparation, forward and reverse flow; settings: tempol added to perfusate
Method: A purfusate was passed through an in vitro porcine femoral artery preparation in the forward and reverse flow directions and the levels of NO metabolite (nitrite) were measured at various flowrates in the forward and reverse directions. Thereafter, tempol was added to the perfusate and the levels of NO metabolite (nitrite) were again measured at various flowrates in the forward and reverse directions. […] The asterisk denotes statistical significance by ANOVA analysis between groups at the respective flows (P<0.05).

For `COc1cc(C(C)=O)ccc1O` [apocynin, 4-hydroxy-3-methoxy-acetophenone], the “amount of superoxide present in artery wall (DHE fluorescence)” value (carotid artery wall) was “reduced the amount of superoxide”, the “reversed flow induced superoxide production” value ([1]; apocynin bolus 4 mg/kg i.v. then 3.5 μg/kg/min i.v.) was “abolished” and the “NADPH oxidase enzyme activity” value (NADPH oxidase; samples from animals treated with apocynin) was “reduced”.

For `C=C1[C@@H](C)[C@H]2[C@H](Cc3ccccc3)NC(=O)[C@]23[C@H](OC(C)=O)/C=C/[C@@](C)(O)C(=O)[C@@H](C)C/C=C/[C@H]3[C@@H]1O` [cytochalasin D], the actin filament pattern [2] is given as “significant disruption of actin filaments”, the “cytochalasin D concentration at which all long actin filament bundles were disrupted and replaced by focal aggregates of F-actin” value [3] is given as ≥ 2 µM and the “cytochalasin D concentration at which changes of actin cytoskeleton were visible” value [3] is given as 20 nM. The “increase of superoxide production vs untreated samples” value ([4]; 10 μM cytochalasin D, artery samples under normal forward flow) was “about 5 fold”, the “superoxide production in vessel with reverse flow” value ([4]; cytochalasin D added to samples from reverse flow vessel) was “further increase” and the “p47phox phosphorylation vs untreated sample” value (p47phox) was “increased”.

With `C/C1=C\[C@H](C)C[C@H](C)OC(=O)C[C@H](c2ccc(O)cc2)NC(=O)[C@@H](Cc2c(Br)[nH]c3ccccc23)N(C)C(=O)[C@H](C)NC(=O)[C@@H](C)C1` [jasplakinolide] the “increase of superoxide production on reversed blood flow” value ([1]; vessel prefilled with 0.1 μM jasplakinolide 10 minutes, reverse flow 2 hrs) was “prevented”, the “superoxide level vs untreated samples” value ([4]; 0.1 μM jasplakinolide, artery samples under normal forward flow) was “not changed” and the “expression of NADPH oxidase subunits gp91phox and p47phox” value (gp91phox and p47phox) was “not changed”. For the same molecule, the “NADPH oxidase activity in vessel with reversed flow vs untreated vessel” value (NADPH oxidase; jasplakinolide treatment (0.1 μM prefill)) was “decreased”.

With `C/C1=C/C(=O)O[C@@H]2C[C@@H](CC[C@H](C)/C=C\CC1)O[C@@](O)([C@@H]1CSC(=O)N1)C2` [latrunculin, latrunculin B] the “increase of superoxide production vs untreated samples” value ([4]; 1 μM latrunculin, artery samples under normal forward flow) was ~2 fold.

In the case of `CC1(C)CC(O)CC(C)(C)N1[O]` [tempol, 4-hydroxy-2,2,6,6-tetramethyl-4-piperidine-N-oxyl], the “NO production (NO metabolite nitrite)” value ([5]; forward flow) is reported as “did not cause a statistically significant increase” and the “NO production (NO metabolite nitrite)” value ([5]; reverse flow, P<0.05) is reported as “did significantly increase”.
